Results reported in patent US8193149B2, “Use of Peptide YY, alone or in combination with glucagon-like peptide, for use in medicine” (mondoBIOTECH Laboratories AG, priority 2007, dated 2012).
No end group written: not given here.

How the values were obtained:
HIV-1IIIB = assay: HIV-1 antiviral assay in CEM-SS cells (MTS readout); format: cell-based
HCMV strain AD169 = assay: HCMV plaque formation assay in MRC-5 cells; format: cell-based
[1] = system: hepatitis B virus (HBV) ayw strain in HepG2-2.2.15 cells; assay: HBV experimental assay system, secreted HBV DNA by TaqMan PCR; format: cell-based; details: single peptide, 10 micrograms per ml; HepG2-2.2.15, six days
Protocol: HepG2-2.2.15 is a stable cell line containing the hepatitis B virus (HBV) ayw strain genome (ATCC Cat. No. CRL-11997). […] After 16-24 hours the confluent monolayer of HepG2-2.2.15 cells was washed and the medium was replaced with complete medium containing test peptides—10 micrograms per ml—in duplicate. […] Three days later the culture medium was replaced with fresh medium containing the peptides. Six days following the initial administration of the peptides, the cell culture supernatants was collected, treated with pronase and DNAse and then used in a real-time quantitative TaqMan PCR assay. The PCR-amplified HBV DNA was detected in real-time by monitoring increases in fluorescence signals that result from the exonucleolytic degradation of a quenched fluorescence probe molecule that hybridizes to the amplified HBV DNA. For each PCR amplification, a standard curve was simultaneously generated using dilutions of purified HBV DNA. Antiviral activity was calculated from the reduction in HBV DNA levels (% virus control).

[2] = system: Primary Human endothelial cells (HUVEC); assay: Endothelial cell migration assay; format: cell-based; details: single peptide, 10 micrograms per ml, 22 hours
spleen cells = assay: Th1/Th2 cytokine profiling assay; format: cell-based, Balb/c mice; details: 10 micrograms per ml; Ovalbumin restimulation, 72 hours
HUVEC = assay: Endothelial tube formation assay; format: cell-based, human; details: single peptide, 10 micrograms per ml, 20 hours
Protocol: The endothelial tube formation assay is based on the ability of endothelial cells to form three-dimensional capillary-like tubular structures when cultured on a gel of basement membrane extract. […] Pre-labeled HUVEC with Calcein AM were seeded in a 96-well culture plate coated with extracellular metrix (Chemicon international Cat. ECM625) and treated with test peptides—10 micrograms per ml—in full growth medium. Positive control was vehicle only. The endothelial cells were allowed to form tubes foe 20 hours and were then examined under an inverted fluorescent microscope. Duplicate wells for each treatment were photographed and quantitatevily analyzed for an average tubule length using image analysis software ImageProPlus. Raw data were expressed as average tubule lenghs in pixels ± standard deviation. Statistic p values were computed using the Student's t-test.

Question: For `Cc1cn([C@H]2C[C@H](N=[N+]=[N-])[C@@H](CO)O2)c(=O)[nH]c1=O` [AZT], which “antiviral activity of positive control compounds (HIV-1)” value (HIV-1IIIB) is on record?
Answer: expected levels of antiviral activity

Question: How did the “antiviral activity of positive control compound (HCMV)” value (HCMV strain AD169; HCMV AD169) turn out when `Nc1nc(O)c2ncn(COC(CO)CO)c2n1` [Ganciclovir, reference compound] was run?
Answer: expected levels of antiviral activity

Question: With `CC(C)(C)NC(=O)[C@@H]1CN(Cc2cccnc2)CCN1C[C@@H](O)C[C@@H](Cc1ccccc1)C(=O)N[C@H]1c2ccccc2C[C@H]1O` [indinavir] as the compound, how does the “antiviral activity of positive control compounds (HIV-1)” value (HIV-1IIIB) read?
Answer: expected levels of antiviral activity

Question: Which “inhibition of HBV replication as compared to the virus control infection” value [1] does the source give for “His-Asp-Glu-Phe-Glu-Arg-His-Ala-Glu-Gly-Thr-Phe-Thr-Ser-Asp-Val-Ser-Ser-Tyr-Leu-Glu-Gly-Gln-Ala-Ala-Lys-Glu-Phe-Ile-Ala-Trp-Leu-Val-Lys-Gly-Arg-Gly-OH (HDEFERHAEGTFTSDVSSYLEGQAAKEFIAWLVKGRG-OH; listed as Homo sapiens) [Peptide 2, commercially available known peptide]” here?
Answer: 62.3%

Question: What about the “inhibition of HCMV plaque formation as compared to the virus control” value (HCMV strain AD169; 10 micrograms per ml, 7-10 days) of the same compound?
Answer: did not inhibit

Question: And the “inhibition of the migration of human endothelial cells” value [2]?
Answer: 65%

Question: And the “IFNγ spleen cells; TH1 response (% of control)” value (spleen cells)?
Answer: 78.0 % of control

Question: And the “IL-2 spleen cells (% of control)” value (spleen cells)?
Answer: 163.4 % of control

Question: What about the “IL-4 spleen cells; TH2 response (% of control)” value (spleen cells) of the same compound?
Answer: 135.2 % of control

Question: And the “IL-5 spleen cells; TH2 response (% of control)” value (spleen cells)?
Answer: 121.7 % of control

Question: And the “TNF-a spleen cells; TH1 response (% of control)” value (spleen cells)?
Answer: 145.1 % of control

Question: What about the “inhibition of the tube formation of human endothelial cells” value (HUVEC) of the same compound?
Answer: 25%
